Where two headings read alike, the source gives them in different places.
What was measured:
[1] = test system: human colon carcinoma HT29; experiment: Proliferation assay (IC50) under aerobic and hypoxic conditions, HT29; format: cell-based; conditions: for IC50: Homo sapiens, 4 h drug exposure, sulforhodamine B; for HCR: hypoxic cytotoxicity ratio = IC50 aerobic/IC50 hypoxic
Protocol: (§1) Compounds representative of the invention were evaluated under both aerobic and hypoxic conditions in a proliferation assay (IC50), using two cell lines: human colon carcinoma HT29, and human cervical carcinoma SiHa (Table 1).
(§2) Drug exposures were performed in 96-well plates (Nunc) either using a 37 DC humidified incubator (20% O2, 5% CO2) or in the incubator compartment (37° C.) of an anaerobic chamber (Shell Lab) where palladium catalyst scrubbed gas (90% N2, 5% H2, 5% CO2) ensures severe anoxia (<0.001% O2). For each experiment, compounds were simultaneously tested under both oxic and hypoxic conditions and included TPZ as an internal control. An 8-methyl-5-nitroquinoline derivative, SN 24349, known to require very low oxygen concentrations for bioactivation (Siim et al., Br. J. Cancer 1994, 70, 596-603) was used to confirm that strict hypoxia was present during the experiment. […] Cell cultures were grown in αMEM (Gibco) containing 5% heat inactivated FCS and maintained in exponential growth phase. For each individual experiment an appropriate number of cells were seeded (HT29=1100; SiHa=1500) into wells in αMEM+10% FCS+10 mM added glucose+100 μM 2′-deoxycytidine (2′dCyd), and allowed to attach for 2-3 h. High glucose (final concentration 17 mM) and the presence of 2′-dCyd minimize hypoxia-induced cell cycle arrest. Cultures were then exposed to drugs, using 3-fold serial dilutions in duplicate, for a further 4 h. Subsequently cells were washed free of compound using complete media (without glucose/2′-dCyd) and allowed to grow for 5 (oxic) or 6 (anoxic) days. Plates were stained with sulforhodamine B as described previously (Wilson et al., J. Med. Chem. 1989, 32, 31-38) and IC50 values determined.
(§3) HCR=Hypoxic cytotoxicity ratio is defined as the ratio of IC50 values under aerobic and hypoxic conditions (IC50 aerobic/IC50 hypoxic).

[2] = test system: human cervical carcinoma SiHa; experiment: Proliferation assay (IC50) under aerobic and hypoxic conditions, SiHa; format: cell-based; conditions: for IC50: Homo sapiens, 4 h drug exposure, sulforhodamine B; for HCR: hypoxic cytotoxicity ratio = IC50 aerobic/IC50 hypoxic
Protocol: as §1, §2, §3

[3] = HT-29, hypoxic (anaerobic chamber, <0.001% O2), then 6 days growth, read-out: IC50 (μM) hypoxic
[4] = HT-29, oxic (20% O2), then 5 days growth, read-out: IC50 (μM) oxic
[5] = hypoxic (anaerobic chamber, <0.001% O2), then 6 days growth, read-out: IC50 (μM) hypoxic
[6] = oxic (20% O2), then 5 days growth, read-out: IC50 (μM) oxic

CC1CCCC(C)N1CCNc1n[n+]([O-])c2cc3c(cc2[n+]1[O-])CCC3 (stereo not drawn) [Compound 39, N-[2-(2,6-Dimethyl-1-piperidinyl)ethyl]-7,8-dihydro-6H-indeno[5,6-e][1,2,4]triazin-3-amine 1,4-Dioxide]
melting point: 170 to 172 °C | IC50 [1, 3]: 2.7 ± 0.2 µM | IC50 [1, 4]: 117 ± 47 µM | HCR [1]: 42 ± 15 | IC50 [2, 5]: 1.1 ± 0.1 µM | IC50 [2, 6]: 73 ± 14 µM | HCR [2]: 65 ± 13

COC1CCN(CCNc2n[n+]([O-])c3cc4c(cc3[n+]2[O-])CCC4)CC1 [Compound 43, N-[2-(4-Methoxy-1-piperidinyl)ethyl]-7,8-dihydro-6H-indeno[5,6-e][1,2,4]triazin-3-amine 1,4-Dioxide]
melting point: 148 to 151 °C | IC50 [1, 3]: 3.5 ± 0.3 µM | IC50 [1, 4]: 187 ± 98 µM | HCR [1]: 56 ± 33 | IC50 [2, 5]: 1.2 ± 0.1 µM | IC50 [2, 6]: 91 ± 3 µM | HCR [2]: 78 ± 11

[O-][n+]1nc(NCCN2CCCCCC2)[n+]([O-])c2cc3c(cc21)CCC3 [Compound 47, N-[2-(1-Azepanyl)ethyl]-7,8-dihydro-6H-indeno[5,6-e][1,2,4]triazin-3-amine 1,4-Dioxide]
melting point: 181 to 184 °C | IC50 [1, 3]: 1.4 ± 0.1 µM | IC50 [1, 4]: 72 ± 2 µM | HCR [1]: 52 ± 1 | IC50 [2, 5]: 0.71 ± 0.01 µM | IC50 [2, 6]: 67 ± 5 µM | HCR [2]: 95 ± 6

[O-][n+]1nc(NCCCO)[n+]([O-])c2cc3c(cc21)CCC3 [Compound 51, 3-[(1,4-Dioxido-7,8-dihydro-6H-indeno[5,6-e][1,2,4]triazin-3-yl)amino]-1-propanol]
melting point: 182 to 184 °C | IC50 [1, 3]: > 50 µM | IC50 [1, 4]: 1610 µM | IC50 [2, 5]: 20.5 ± 3.3 µM | IC50 [2, 6]: 455 ± 25 µM | HCR [2]: 22 ± 1

COCCN(C)CCCNc1n[n+]([O-])c2cc3c(cc2[n+]1[O-])CCC3 [Compound 53, N^1-(1,4-Dioxido-7,8-dihydro-6H-indeno[5,6-e][1,2,4]triazin-3-yl)-N^3-(2-methoxyethyl)-N^3-methyl-1,3-propanediamine]
melting point: 77 to 79 °C | IC50 [1, 3]: 5.4 ± 2.8 µM | IC50 [1, 4]: 261 ± 90 µM | HCR [1]: 81 ± 60 | IC50 [2, 5]: 2.6 ± 0.4 µM | IC50 [2, 6]: 142 ± 6 µM | HCR [2]: 55 ± 6

COC1CN(CCCNc2n[n+]([O-])c3cc4c(cc3[n+]2[O-])CCC4)C1 [Compound 55, N-[3-(3-Methoxy-1-azetidinyl)propyl]-7,8-dihydro-6H-indeno[5,6-e][1,2,4]triazin-3-amine 1,4-Dioxide]
melting point: 150 to 152 °C | IC50 [1, 3]: 2.4 ± 0.3 µM | IC50 [1, 4]: 233 ± 19 µM | HCR [1]: 102 ± 22 | IC50 [2, 5]: 1.4 ± 0.4 µM | IC50 [2, 6]: 99 ± 14 µM | HCR [2]: 83 ± 34

COC1CCN(CCCNc2n[n+]([O-])c3cc4c(cc3[n+]2[O-])CCC4)CC1 [Compound 59, N-[3-(4-Methoxy-1-piperidinyl)propyl]-7,8-dihydro-6H-indeno[5,6-e][1,2,4]triazin-3-amine 1,4-Dioxide]
melting point: 128 to 130 °C | IC50 [1, 3]: 7.1 ± 0.8 µM | IC50 [1, 4]: 494 ± 36 µM | HCR [1]: 70 ± 5 | IC50 [2, 5]: 2 ± 0.2 µM | IC50 [2, 6]: 114 ± 2 µM | HCR [2]: 57 ± 1

[O-][n+]1nc(NCCCN2CCOCC2)[n+]([O-])c2cc3c(cc21)CCC3 [Compound 61, N-[3-(4-Morpholinyl)propyl]-7,8-dihydro-6H-indeno[5,6-e][1,2,4]triazin-3-amine 1,4-Dioxide]
melting point: 158 to 160 °C | IC50 [1, 3]: 21 ± 8 µM | IC50 [1, 4]: 385 ± 14 µM | HCR [1]: 20 ± 5 | IC50 [2, 5]: 8.8 ± 1.7 µM | IC50 [2, 6]: 357 ± 35 µM | HCR [2]: 44 ± 12

[O-][n+]1nc(NCCCCN2CCOCC2)[n+]([O-])c2cc3c(cc21)CCC3 [Compound 63, N-[4-(4-Morpholinyl)butyl]-7,8-dihydro-6H-indeno[5,6-e][1,2,4]triazin-3-amine 1,4-Dioxide]
melting point: 140 to 141 °C | IC50 [1, 3]: 14.2 µM | IC50 [1, 4]: 325 ± 70 µM | HCR [1]: 28 | IC50 [2, 5]: 5.3 ± 0.4 µM | IC50 [2, 6]: 239 ± 22 µM | HCR [2]: 46 ± 8

[O-][n+]1cn[n+]([O-])c2cc3c(cc21)CCC3 [Compound 65, 7,8-Dihydro-6H-indeno[5,6-e][1,2,4]triazine 1,4-Dioxide]
melting point: 179 to 181 °C | IC50 [1, 3]: 2.4 ± 0.4 µM | IC50 [1, 4]: 401 ± 236 µM | HCR [1]: 226 ± 153 | IC50 [2, 5]: 1 ± 0.5 µM | IC50 [2, 6]: 80 ± 7 µM | HCR [2]: 155 ± 117

CCc1n[n+]([O-])c2cc3c(cc2[n+]1[O-])CCC3 [Compound 68, 3-Ethyl-7,8-dihydro-6H-indeno[5,6-e][1,2,4]triazine 1,4-Dioxide]
melting point: 140 to 142 °C | IC50 [1, 3]: 48 ± 8 µM | IC50 [1, 4]: 289 ± 3 µM | HCR [1]: 6.0 ± 0.05 | IC50 [2, 5]: 37 ± 2 µM | IC50 [2, 6]: 326 ± 7 µM | HCR [2]: 8.8 ± 0.2

[O-][n+]1nc(CCCO)[n+]([O-])c2cc3c(cc21)CCC3 [Compound 71, 3-(1,4-Dioxido-7,8-dihydro-6H-indeno[5,6-e][1,2,4]triazin-3-yl)-1-propanol]
melting point: 153 to 155 °C | IC50 [1, 3]: 15 ± 3 µM | IC50 [1, 4]: 874 ± 119 µM | HCR [1]: 57 ± 1 | IC50 [2, 5]: 6.9 ± 3.3 µM | IC50 [2, 6]: 680 ± 95 µM | HCR [2]: 114 ± 31

CC1Cc2cc3c(cc2C1)[n+]([O-])c(NCCN(C)C)n[n+]3[O-] (stereo not drawn) [Compound 97, N^1,N^1-Dimethyl-N^2-(7-methyl-1,4-dioxido-7,8-dihydro-6H-indeno[5,6-e][1,2,4]triazin-3-yl)-1,2-ethanediamine]
melting point: 149 to 151 °C | IC50 [1, 3]: 3.5 ± 0.4 µM | IC50 [1, 4]: 185 ± 27 µM | HCR [1]: 54 ± 14 | IC50 [2, 5]: 1.4 ± 0.3 µM | IC50 [2, 6]: 123 ± 17 µM | HCR [2]: 97 ± 33

CC1Cc2cc3c(cc2C1)[n+]([O-])c(NCCCN1CCOCC1)n[n+]3[O-] (stereo not drawn) [Compound 99, 7-Methyl-N-[3-(4-morpholinyl)propyl]-7,8-dihydro-6H-indeno[5,6-e][1,2,4]triazin-3-amine 1,4-Dioxide]
melting point: 161 to 163 °C | IC50 [1, 3]: 19 ± 6 µM | IC50 [1, 4]: 459 ± 93 µM | HCR [1]: 25 ± 2 | IC50 [2, 5]: 8.4 ± 3.2 µM | IC50 [2, 6]: 415 ± 133 µM | HCR [2]: 50 ± 3

CC1Cc2cc3c(cc2C1)[n+]([O-])c(CCCN1CCOCC1)n[n+]3[O-] (stereo not drawn) [Compound 104, 7-Methyl-3-[3-(4-morpholinyl)propyl]-7,8-dihydro-6H-indeno[5,6-e][1,2,4]triazine 1,4-Dioxide]
melting point: 119 to 121 °C | IC50 [1, 3]: 2.9 ± 0.1 µM | IC50 [1, 4]: 210 ± 38 µM | HCR [1]: 72 ± 13 | IC50 [2, 5]: 1.7 ± 0.2 µM | IC50 [2, 6]: 226 ± 14 µM | HCR [2]: 134 ± 4

CC1Cc2cc3c(cc2C1)[n+]([O-])c(CCCO)n[n+]3[O-] (stereo not drawn) [Compound 105, 3-(7-Methyl-1,4-dioxido-7,8-dihydro-6H-indeno[5,6-e][1,2,4]triazin-3-yl)-1-propanol]
melting point: 130 to 131 °C | IC50 [1, 3]: 13 ± 1.3 µM | IC50 [1, 4]: 1040 ± 28 µM | HCR [1]: 80 ± 2 | IC50 [2, 5]: 8 ± 0.4 µM | IC50 [2, 6]: 831 ± 30 µM | HCR [2]: 104 ± 4

Reference: patent publication US7989451B2, “Tricyclic 1,2,4-triazine oxides and compositions for therapeutic use in cancer treatments” (Auckland Uniservices Limited, priority 2005, dated 2011)
